Measured values published in patent publication US9808466B2, “Macrocyclic compounds as protein kinase inhibitors” (Fundación Centro Nacional de Investigaciones Oncologicas …, priority 2011, dated 2017).
Where two headings read alike, the source gives them in different places.

Columns and labels:
PI3K (p110α/p85α) = target: T1, PI3K (p110α/p85α) (Homo sapiens, UniProt P42336); test: PI3K activity assay (ADP Hunter Plus); format: biochemical
T1 construct: purchased Carna Biosciences 07CBS-0402A
Method: The kinase activity was measured by using the commercial ADP Hunter™ Plus assay available from DiscoveRx (#33-016), which is a homogeneous assay to measure the accumulation of ADP, a universal product of kinase activity. […] Reaction was carried out for 1 hour at 25° C. Reagent A and B were sequentially added to the wells and plates were incubated for 30 min at 37° C. Fluorescence counts were read in a Victor instrument (Perkin Elmer) with the recommended settings (544 and 580 nm as excitation and emission wavelengths, respectively). Values were normalized against the control activity included for each enzyme (i.e., 100% PI3 kinase activity, without compound). These values were plotted against the inhibitor concentration and were fit to a sigmoid dose-response curve by using the Graphad software.

PIM-1 = target: T2, PIM-1 (Homo sapiens, UniProt P11309); test: PIM-1 biochemical assay (ADP Hunter); conditions: PIM1; read-out: PIM-1 activity, IC50 (semi-quantitative class)
T2 construct: histidine tag (C); made in house
From the text: The biochemical assay to measure PIM-1 activity relies on the ADP Hunter assay kit (DiscoveRx Corp., Cat. #90-0077), that determines the amount of ADP as direct product of the kinase enzyme activity.
The enzyme has been expressed and purified in-house as a recombinant human protein with a C-terminal histidine tag. The protein is active and stable.
Assay conditions were as indicated by the kit manufacturers with the following adaptations for the kinase activity step: • Kinase assay buffer and assay volume stay as recommended (15 mM HEPES, pH 7.4, 20 mM NaCl, 1 mM EGTA, 0.02% Tween 20, 10 mM MgCl2 and 0.1 mg/ml bovine γ-globulins/75 μl assay volume) • Incubation time and temperature: 60 min at 30° C. • PIM-1 concentration: 50 pg/μl • ATP concentration: 100 μM • PIM-1 substrate peptide: PIMtide ([…]) (SEQIDNO. 1) • Peptide concentration: 60 μM • Positive control for kinase activity inhibition: 1-10 μM Staurosporine • DMSO concentration have to stay below 2% during the kinase reaction
Assays were performed in either 96 or 384-well plates. The final outcome of the coupled reactions provided by the kit is the release of the fluorescent product Resorufin and has been measured with a multilabel HTS counter VICTOR V (PerkinElmer) using an excitation filter at 544 nm and an emission filter at 580 nm.

mTOR = target: T3, mTOR (Homo sapiens, UniProt P42345); test: mTOR assay (LanthaScreen kinase activity assay); format: biochemical
T3 construct: purchased Invitrogen PV4754
Method: The enzymatic mTOR activity was measured using a LanthaScreen™ kinase activity assay (Invitrogen). The enzyme was purchased from Invitrogen (PV4754), as well as the GFP-labeled substrate (4EBP1-GFP; PV4759) and the Tb-anti-p4EBP1(pThr46) antibody (PV4757). The assay was performed in 50 mM HEPES buffer, pH 7.5, containing 1.5 mM MnCl2, 10 mM MgCl2, 1 mM EGTA, 2.5 mM DTT and 0.01% Tween-20. The concentration of the assay components were the following: 0.24 nM mTOR kinase, 400 nM 4EBP1-GFP, […] and serial dilutions of the compound (inhibitor) to be evaluated. After 1 h incubation at room temperature, 20 mM EDTA was used to stop the reaction and terbium-labeled antibody (4 nM) added to detect phosphorylated product. The antibody associates with the phosphorylated product resulting in an increased TR-FRET value. The TR-FRET value (a dimensionless number) was calculated as the ratio of the acceptor signal (GFP, emission at 520 nm) to the donor signal (terbium, emission at 495 nm). Values were plotted against the inhibitor concentration and fitted to a sigmoid dose-response curve using GraphPad software.

[1] = read-out: PI3K alpha activity, IC50 (semi-quantitative class)
[2] = read-out: PI3K alpha actual IC50 (in parentheses)
[3] = read-out: mTOR activity, IC50 (semi-quantitative class)
[4] = read-out: mTOR actual IC50 (in parentheses)

T2 sequence (P11309 whole entry): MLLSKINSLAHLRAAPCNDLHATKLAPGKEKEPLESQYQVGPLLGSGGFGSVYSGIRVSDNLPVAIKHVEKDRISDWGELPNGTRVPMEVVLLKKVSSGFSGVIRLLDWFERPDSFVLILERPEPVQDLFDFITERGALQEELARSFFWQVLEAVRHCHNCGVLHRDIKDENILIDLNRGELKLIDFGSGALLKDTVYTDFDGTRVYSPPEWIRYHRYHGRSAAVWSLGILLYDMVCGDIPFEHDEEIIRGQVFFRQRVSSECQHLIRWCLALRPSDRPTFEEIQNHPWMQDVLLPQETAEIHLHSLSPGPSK
T1 sequence (P42336 whole entry): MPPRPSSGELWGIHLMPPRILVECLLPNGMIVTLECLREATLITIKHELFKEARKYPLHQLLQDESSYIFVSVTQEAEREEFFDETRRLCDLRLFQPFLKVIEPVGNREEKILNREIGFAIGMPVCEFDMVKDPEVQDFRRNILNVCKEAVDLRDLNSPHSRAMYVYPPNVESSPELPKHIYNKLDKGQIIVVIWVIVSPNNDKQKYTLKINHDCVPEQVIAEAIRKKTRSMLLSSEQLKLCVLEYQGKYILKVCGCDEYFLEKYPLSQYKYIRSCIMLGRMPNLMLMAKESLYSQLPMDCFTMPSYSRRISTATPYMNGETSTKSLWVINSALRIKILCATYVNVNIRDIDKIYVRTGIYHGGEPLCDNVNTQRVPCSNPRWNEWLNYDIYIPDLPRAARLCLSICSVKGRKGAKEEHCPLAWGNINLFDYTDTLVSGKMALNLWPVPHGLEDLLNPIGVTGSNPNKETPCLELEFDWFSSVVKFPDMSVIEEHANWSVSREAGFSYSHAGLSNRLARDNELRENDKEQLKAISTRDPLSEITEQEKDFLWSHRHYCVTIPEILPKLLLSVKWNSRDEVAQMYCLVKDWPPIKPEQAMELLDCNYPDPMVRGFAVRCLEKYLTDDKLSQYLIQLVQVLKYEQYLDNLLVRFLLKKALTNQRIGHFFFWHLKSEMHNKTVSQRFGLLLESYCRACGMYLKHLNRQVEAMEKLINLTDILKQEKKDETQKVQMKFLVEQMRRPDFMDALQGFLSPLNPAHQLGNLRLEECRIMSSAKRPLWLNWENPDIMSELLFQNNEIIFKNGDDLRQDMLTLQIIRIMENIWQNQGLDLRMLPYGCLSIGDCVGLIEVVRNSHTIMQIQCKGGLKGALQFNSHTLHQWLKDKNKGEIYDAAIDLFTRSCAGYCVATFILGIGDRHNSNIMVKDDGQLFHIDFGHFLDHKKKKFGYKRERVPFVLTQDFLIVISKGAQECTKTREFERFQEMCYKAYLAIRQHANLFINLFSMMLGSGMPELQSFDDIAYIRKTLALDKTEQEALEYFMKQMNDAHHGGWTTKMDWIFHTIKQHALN
T1 sequence (P27986 whole entry partner): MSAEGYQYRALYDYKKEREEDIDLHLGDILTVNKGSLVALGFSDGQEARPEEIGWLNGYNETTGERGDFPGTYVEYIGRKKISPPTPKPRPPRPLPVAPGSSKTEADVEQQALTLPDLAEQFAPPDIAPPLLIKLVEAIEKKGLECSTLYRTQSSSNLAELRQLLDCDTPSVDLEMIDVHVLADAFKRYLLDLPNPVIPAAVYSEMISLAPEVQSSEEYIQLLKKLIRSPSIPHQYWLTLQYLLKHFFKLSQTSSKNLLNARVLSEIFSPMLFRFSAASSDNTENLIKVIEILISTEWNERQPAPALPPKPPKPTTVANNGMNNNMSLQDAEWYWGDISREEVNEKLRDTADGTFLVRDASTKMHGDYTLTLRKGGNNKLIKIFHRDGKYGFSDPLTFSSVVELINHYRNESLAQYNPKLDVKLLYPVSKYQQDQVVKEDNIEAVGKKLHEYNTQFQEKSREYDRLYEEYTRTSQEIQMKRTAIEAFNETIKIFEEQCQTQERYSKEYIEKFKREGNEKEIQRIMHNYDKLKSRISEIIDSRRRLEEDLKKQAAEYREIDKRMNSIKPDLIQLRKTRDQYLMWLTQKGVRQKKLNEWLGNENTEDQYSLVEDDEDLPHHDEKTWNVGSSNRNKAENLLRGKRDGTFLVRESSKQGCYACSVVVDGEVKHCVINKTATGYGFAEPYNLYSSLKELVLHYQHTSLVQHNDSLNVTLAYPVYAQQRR
T3 sequence (P42345 1360-2549 limits assumed): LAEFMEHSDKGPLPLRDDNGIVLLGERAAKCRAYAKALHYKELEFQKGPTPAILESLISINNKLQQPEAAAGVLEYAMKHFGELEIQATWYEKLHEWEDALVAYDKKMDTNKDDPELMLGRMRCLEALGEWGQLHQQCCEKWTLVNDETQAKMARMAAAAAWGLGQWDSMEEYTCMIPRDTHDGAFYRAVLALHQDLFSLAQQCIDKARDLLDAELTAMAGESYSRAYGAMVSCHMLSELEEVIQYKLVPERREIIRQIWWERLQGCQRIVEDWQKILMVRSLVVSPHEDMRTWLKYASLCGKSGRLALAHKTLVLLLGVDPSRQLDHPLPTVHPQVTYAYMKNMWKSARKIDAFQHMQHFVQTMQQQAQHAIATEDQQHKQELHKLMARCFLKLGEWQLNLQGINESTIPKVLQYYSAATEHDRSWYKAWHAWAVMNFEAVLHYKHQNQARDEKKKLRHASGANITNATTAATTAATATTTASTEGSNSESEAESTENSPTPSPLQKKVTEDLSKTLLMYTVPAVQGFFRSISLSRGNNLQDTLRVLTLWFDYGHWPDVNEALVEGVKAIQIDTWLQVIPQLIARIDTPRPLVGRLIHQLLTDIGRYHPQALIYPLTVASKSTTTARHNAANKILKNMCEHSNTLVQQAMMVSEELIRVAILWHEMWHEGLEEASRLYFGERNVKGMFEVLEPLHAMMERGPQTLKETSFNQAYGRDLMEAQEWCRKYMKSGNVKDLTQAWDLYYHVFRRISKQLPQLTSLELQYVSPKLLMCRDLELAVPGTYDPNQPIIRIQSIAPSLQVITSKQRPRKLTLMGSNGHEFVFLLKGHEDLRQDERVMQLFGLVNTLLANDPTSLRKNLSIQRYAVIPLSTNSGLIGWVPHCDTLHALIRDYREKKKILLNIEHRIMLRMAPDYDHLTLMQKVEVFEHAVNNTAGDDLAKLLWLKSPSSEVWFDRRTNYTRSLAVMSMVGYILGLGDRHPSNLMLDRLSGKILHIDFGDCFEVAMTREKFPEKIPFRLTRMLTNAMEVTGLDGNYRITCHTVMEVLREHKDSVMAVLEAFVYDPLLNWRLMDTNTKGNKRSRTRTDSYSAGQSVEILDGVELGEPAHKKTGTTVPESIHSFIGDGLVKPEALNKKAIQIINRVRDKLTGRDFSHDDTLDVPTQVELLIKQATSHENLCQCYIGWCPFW

## COc1ncc2cc1NS(=O)(=O)c1cccc(c1)C(=O)NCc1cncc(c1)-c1ccnc3ccc-2cc13 [compound 1]
PI3K (p110α/p85α); [1]
  IC50: < 100 nM
PI3K (p110α/p85α); [2]
  IC50: 2 nM
PIM-1
  IC50: > 1000 nM
mTOR; [3]
  IC50: < 100 nM
mTOR; [4]
  IC50: 64 nM

## O=C1NCc2cncc(c2)-c2ccnc3ccc(cc23)-c2cnc(O)c(c2)NS(=O)(=O)c2cccc1c2 [compound 2]
PI3K (p110α/p85α); [1]
  IC50: 100 to 1000 nM
PIM-1
  IC50: > 1000 nM
mTOR; [3]
  IC50: > 1000 nM

## COc1ncc2cc1NS(=O)(=O)c1cccc(c1)C(=O)NCc1ccc(F)c(c1)-c1ccnc3ccc-2cc13 [compound 4]
PI3K (p110α/p85α); [1]
  IC50: < 100 nM
PI3K (p110α/p85α); [2]
  IC50: 3 nM
PIM-1
  IC50: > 1000 nM
mTOR; [3]
  IC50: 100 to 1000 nM

## COc1ncc2cc1NS(=O)(=O)c1cccc(c1)C(=O)NCc1cccc(c1F)-c1ccnc3ccc-2cc13 [compound 5]
PI3K (p110α/p85α); [1]
  IC50: < 100 nM
PI3K (p110α/p85α); [2]
  IC50: 23 nM
PIM-1
  IC50: > 1000 nM
mTOR; [3]
  IC50: 100 to 1000 nM

## COc1ncc2cc1NS(=O)(=O)c1cccc(c1)C(=O)NCC1CCN(CC1)c1ccnc3ccc-2cc13 [compound 6]
PI3K (p110α/p85α); [1]
  IC50: < 100 nM
PI3K (p110α/p85α); [2]
  IC50: 11 nM
PIM-1
  IC50: > 1000 nM
mTOR; [3]
  IC50: < 100 nM
mTOR; [4]
  IC50: 72 nM

## COc1ncc2cc1NS(=O)(=O)c1cccc(c1)C(=O)NCCCCNc1ccnc3ccc-2cc13 [compound 7]
PI3K (p110α/p85α); [1]
  IC50: > 1000 nM
PIM-1
  IC50: > 1000 nM
mTOR; [3]
  IC50: > 1000 nM

## COc1ncc2cc1NS(=O)(=O)c1cccc(c1)C(=O)NCc1cncc(c1)-c1cnc3sc-2nn13 [compound 8]
PI3K (p110α/p85α); [1]
  IC50: < 100 nM
PI3K (p110α/p85α); [2]
  IC50: 7 nM
PIM-1
  IC50: > 1000 nM
mTOR; [3]
  IC50: > 1000 nM

## O=C1NCc2cncc(c2)-c2cnc3sc(nn23)-c2cnc(O)c(c2)NS(=O)(=O)c2cccc1c2 [compound 9]
PI3K (p110α/p85α); [1]
  IC50: 100 to 1000 nM
PIM-1
  IC50: 100 to 1000 nM
mTOR; [3]
  IC50: > 1000 nM

## COc1ncc2cc1NS(=O)(=O)c1cccc(c1)C(=O)NCc1cncc(c1)-c1cnn3ccc-2nc13 [compound 11]
PI3K (p110α/p85α); [1]
  IC50: < 100 nM
PI3K (p110α/p85α); [2]
  IC50: 0.4 nM
PIM-1
  IC50: > 1000 nM
mTOR; [3]
  IC50: < 100 nM
mTOR; [4]
  IC50: 4 nM

## COc1ncc2cc1NS(=O)(=O)c1cccc(c1)C(=O)NCc1cncc(c1)-c1cnc3ccc-2nn13 [compound 12]
PI3K (p110α/p85α); [1]
  IC50: < 100 nM
PI3K (p110α/p85α); [2]
  IC50: 0.4 nM
PIM-1
  IC50: > 1000 nM
mTOR; [3]
  IC50: < 100 nM
mTOR; [4]
  IC50: 5 nM

## COc1ncc2cc1NS(=O)(=O)c1cccc(c1)C(=O)NCc1cccc(c1)-c1cnc3ccc-2nn13 [compound 13]
PI3K (p110α/p85α); [1]
  IC50: < 100 nM
PI3K (p110α/p85α); [2]
  IC50: 0.4 nM
PIM-1
  IC50: > 1000 nM
mTOR; [3]
  IC50: < 100 nM
mTOR; [4]
  IC50: 10 nM

## COc1ncc2cc1NS(=O)(=O)c1cccc(c1)C(=O)NCc1cc(ccn1)-c1ccnc3ccc-2cc13 [compound 15]
PI3K (p110α/p85α); [1]
  IC50: < 100 nM
PI3K (p110α/p85α); [2]
  IC50: 20 nM
PIM-1
  IC50: > 1000 nM
mTOR; [3]
  IC50: 100 to 1000 nM

## COc1ncc2cc1NS(=O)(=O)c1cccc(c1)C(=O)NCc1cccc(c1)-c1cnc3sc-2nn13 [compound 17]
PI3K (p110α/p85α); [1]
  IC50: < 100 nM
PI3K (p110α/p85α); [2]
  IC50: 9 nM
PIM-1
  IC50: > 1000 nM
mTOR; [3]
  IC50: 100 to 1000 nM

## COc1ncc2cc1NS(=O)(=O)c1cccc(c1)C(=O)NCCn1cc(cn1)-c1cnc3ccc-2nn13 [compound 18]
PI3K (p110α/p85α); [1]
  IC50: < 100 nM
PI3K (p110α/p85α); [2]
  IC50: 5 nM
PIM-1
  IC50: > 1000 nM
mTOR; [3]
  IC50: < 100 nM
mTOR; [4]
  IC50: 67 nM

## COc1ncc2cc1NS(=O)(=O)c1cccc(c1)C(=O)NCCn1cc(cn1)-c1ccnc3ccc-2cc13 [compound 19]
PI3K (p110α/p85α); [1]
  IC50: < 100 nM
PI3K (p110α/p85α); [2]
  IC50: 4 nM
PIM-1
  IC50: > 1000 nM
mTOR; [3]
  IC50: < 100 nM
mTOR; [4]
  IC50: 21 nM

## COc1ncc2cc1NS(=O)(=O)c1cccc(c1)C(=O)NCc1cc(cs1)-c1ncnc3c1SC2=C3 [compound 74]
PI3K (p110α/p85α); [1]
  IC50: > 1000 nM
PIM-1
  IC50: 100 to 1000 nM

## COc1ncc2cc1NS(=O)(=O)c1cccc(c1)C(=O)N[C@H]1CCCN(C1)c1ncnc3c1SC2=C3 [compound 75]
PI3K (p110α/p85α); [1]
  IC50: > 1000 nM
PIM-1
  IC50: > 1000 nM

## COc1ncc2cc1NS(=O)(=O)c1cccc(c1)C(=O)N[C@@H]1CCCN(C1)c1ncnc3c1SC2=C3 [compound 76]
PI3K (p110α/p85α); [1]
  IC50: > 1000 nM
PIM-1
  IC50: 100 to 1000 nM

## COc1ncc2cc1NS(=O)(=O)c1cccc(c1)C(=O)NCc1cc(ccn1)-c1cnc3sc-2nn13 [compound 96]
PI3K (p110α/p85α); read-out: PI3K alpha IC50 (in parentheses)
  IC50: 8.8 nM
PI3K (p110α/p85α); read-out: PI3K alpha activity (semi-quantitative IC50)
  IC50: < 100 nM
mTOR; read-out: mTOR activity (semi-quantitative IC50)
  IC50: 100 to 1000 nM
